According to ChEMBL document CHEMBL3286345, “Synthesis and biological activity of new arenediyne-linked isoxazolidines” (2014):
Activity calls are given as the source filed them. The calls are words filed in the database; no cut-off is given here.

Columns and labels:
SH-SY5Y [1] = experiment: Antiproliferative activity against human SH-SY5Y cells at 1 to 100 uM after 24 to 72 hrs by MTT assay; format: functional, cell-based
HT-29 [2] = experiment: Antiproliferative activity against human HT-29 cells at 1 to 100 uM after 24 to 72 hrs by MTT assay; format: functional, cell-based
HT-29 [3] = experiment: Cytotoxicity against human HT-29 cells at 1 to 100 uM after 24 to 72 hrs by LDH release assay; format: functional, cell-based
HepG2 [4] = experiment: Cytotoxicity against human HepG2 cells at 1 to 100 uM after 24 to 72 hrs by LDH release assay; format: functional, cell-based
HepG2 [5] = experiment: Antiproliferative activity against human HepG2 cells at 1 to 100 uM after 24 to 72 hrs by cell counting assay; format: functional, cell-based
SH-SY5Y [6] = experiment: Antiproliferative activity against human SH-SY5Y cells at 1 to 100 uM after 24 to 72 hrs by cell counting assay; format: functional, cell-based
HepG2 [7] = experiment: Antiproliferative activity against human HepG2 cells at 1 to 100 uM after 24 to 72 hrs by MTT assay; format: functional, cell-based
HT-29 [8] = experiment: Antiproliferative activity against human HT-29 cells at 1 to 100 uM after 24 to 72 hrs by cell counting assay; format: functional, cell-based
SH-SY5Y [9] = experiment: Cytotoxicity against human SH-SY5Y cells at 1 to 100 uM after 24 to 72 hrs by LDH release assay; format: functional, cell-based
SH-SY5Y [10] = experiment: Antiproliferative activity against human SH-SY5Y cells after 24 to 72 hrs by MTT assay; format: functional, cell-based
HepG2 [11] = experiment: Cytotoxicity against human HepG2 cells at 50 to 100 uM after 24 to 72 hrs by LDH release assay; format: functional, cell-based
HT-29 [12] = experiment: Antiproliferative activity against human HT-29 cells after 24 to 72 hrs by MTT assay; format: functional, cell-based
HT-29 [13] = experiment: Cytotoxicity against human HT-29 cells assessed as cell death at 1 to 100 uM after 24 to 72 hrs by trypan blue dye exclusion assay; format: functional, cell-based
SH-SY5Y [14] = experiment: Cytotoxicity against human SH-SY5Y cells assessed as cell death at 1 to 100 uM after 24 to 72 hrs by trypan blue dye exclusion assay; format: functional, cell-based
HepG2 [15] = experiment: Antiproliferative activity against human HepG2 cells at 1 to 100 uM by MTT assay; format: functional, cell-based; settings: TDE = time-dependent effect
HT-29 [16] = experiment: Cytotoxicity against human HT-29 cells at 50 to 100 uM after 24 to 72 hrs by LDH release assay; format: functional, cell-based
HT-29 [17] = experiment: Antiproliferative activity against human HT-29 cells at 50 to 100 uM after 48 to 72 hrs by MTT assay; format: functional, cell-based
SH-SY5Y [18] = experiment: Antiproliferative activity against human SH-SY5Y cells at 1 to 100 uM by MTT assay; format: functional, cell-based; settings: TDE = time-dependent effect
SH-SY5Y [19] = experiment: Antiproliferative activity against human SH-SY5Y cells at 100 uM after 72 hrs by MTT assay; format: functional, cell-based
HepG2 [20] = experiment: Cytotoxicity against human HepG2 cells assessed as cell death at 1 to 100 uM after 24 to 72 hrs by trypan blue dye exclusion assay; format: functional, cell-based
HT-29 [21] = experiment: Antiproliferative activity against human HT-29 cells at 1 to 100 uM by MTT assay; format: functional, cell-based; settings: TDE = time-dependent effect
HepG2 [22] = experiment: Antiproliferative activity against human HepG2 cells after 24 to 72 hrs by MTT assay; format: functional, cell-based
HepG2 [23] = experiment: Antiproliferative activity against human HepG2 cells at 100 uM after 72 hrs by MTT assay; format: functional, cell-based
SH-SY5Y [24] = experiment: Cytotoxicity against human SH-SY5Y cells at 50 to 100 uM after 24 to 72 hrs by LDH release assay; format: functional, cell-based
HT-29 [25] = experiment: Antiproliferative activity against human HT-29 cells at 100 uM after 72 hrs by MTT assay; format: functional
HT-29 [26] = experiment: Antiproliferative activity against human HT-29 cells at 50 uM after 48 to 72 hrs by MTT assay; format: functional, cell-based
HT-29 [27] = experiment: Antiproliferative activity against human HT-29 cells at 100 uM after 48 hrs by MTT assay; format: functional, cell-based

For CN1O[C@H](OCC#Cc2ccccc2C#CCO)C[C@@H]1CO[Si](c1ccccc1)(c1ccccc1)C(C)(C)C (racemic), the Activity (SH-SY5Y [1]) was “inactive”, the Activity (HT-29 [2]) was “inactive” and the Activity (HT-29 [3]) was “inactive”. For the same compound, the Activity (HepG2 [4]) was “inactive”, the Activity (HepG2 [5]) was “inactive” and the Activity (SH-SY5Y [6]) was “inactive”. The Activity (HepG2 [7]) was “inactive”, the Activity (HT-29 [8]) was “inactive” and the Activity (SH-SY5Y [9]) was “inactive”.

For CN1O[C@H](OCC#Cc2ccccc2C#CCO)C[C@@H]1CO (racemic), the Activity (SH-SY5Y [10]) was “Dose-dependent effect”, the Activity (HepG2 [11]) was “Active” and the Activity (HT-29 [12]) was “Dose-dependent effect”. The Activity (HT-29 [13]) was “Active”, the Activity (SH-SY5Y [14]) was “Active” and the Activity (HepG2 [15]) was “tde”. The Activity (HT-29 [16]) was “Active”, the Activity (HT-29 [17]) was “Active” and the Activity (HepG2 [5]) was “Active”. The Activity (SH-SY5Y [18]) was “tde”, the Activity (SH-SY5Y [19]) was “Active” and the Activity (SH-SY5Y [6]) was “Active”. For the same compound, the Activity (HT-29 [8]) was “Active”, the Activity (HepG2 [20]) was “Active” and the Activity (HT-29 [21]) was “tde”. For the same compound, the Activity (HepG2 [22]) was “Dose-dependent effect”, the Activity (HepG2 [23]) was “Active” and the Activity (SH-SY5Y [24]) was “Active”.

With CN1O[C@@H](OCC#Cc2ccccc2C#CCO)C[C@@H]1CO[Si](c1ccccc1)(c1ccccc1)C(C)(C)C (racemic) the Activity (SH-SY5Y [1]) was “inactive”, the Activity (HT-29 [2]) was “inactive” and the Activity (HT-29 [3]) was “inactive”. The Activity (HepG2 [4]) was “inactive”, the Activity (HepG2 [5]) was “inactive” and the Activity (SH-SY5Y [6]) was “inactive”. For the same compound, the Activity (HepG2 [7]) was “inactive”, the Activity (HT-29 [8]) was “inactive” and the Activity (SH-SY5Y [9]) was “inactive”.

With CN1O[C@@H]2COCC#Cc3ccccc3C#CCOC[C@@H]2[C@@H]1CO[Si](c1ccccc1)(c1ccccc1)C(C)(C)C (racemic) the Activity (SH-SY5Y [10]) was “Dose-dependent effect”, the Activity (HepG2 [11]) was “Active” and the Activity (HT-29 [25]) was 63%. The Activity (HT-29 [12]) was “Dose-dependent effect”, the Activity (HT-29 [26]) was “Active” and the Activity (HT-29 [13]) was “Active”. The Activity (SH-SY5Y [14]) was “Active”, the Activity (HepG2 [15]) was “tde” and the Activity (HT-29 [16]) was “Active”. For the same compound, the Activity (HepG2 [5]) was “Active”, the Activity (SH-SY5Y [18]) was “tde” and the Activity (SH-SY5Y [6]) was “Active”. The Activity (HT-29 [8]) was “Active”, the Activity (HepG2 [20]) was “Active” and the Activity (HT-29 [21]) was “tde”. For the same compound, the Activity (HepG2 [22]) was “Dose-dependent effect”, the Activity (SH-SY5Y [24]) was “Active” and the Activity (HT-29 [27]) was “Active”.
